Assay results as given in patent publication US8772319B2 (priority 2004, dated 2014).
Several values for one entry are separate records, joined by “and”; a condition that tells them apart may be missing. Equal entries are not always repeated. Structures can show the parent of a compound that is named as a salt. Where two headings read alike, the source gives them in different places.

How the values were obtained:
male Swiss-Webster mice [1] = test: Locomotor activity 8-hour time course/dose response study; details: for ED50: Mus musculus, ip, 8 h, read-out: ED50, dose producing 1/2 maximal stimulant activity (S, stimulation)
Protocol: (§1) 3. Locomotor Activity. […] Panels of infrared beams (16 beams) and corresponding photodetectors were located in the horizontal direction along the sides of each activity chamber. […] Just prior to placement in the apparatus, all mice received a saline injection IP. In all studies, horizontal activity (interruption of 1 photocell beam) was measured for 1-h within 10-min periods. Testing was conducted with one mouse per activity chamber. […] Plot the mean (±SEM) maximal stimulant activity (total counts in the 30 min period divided by 3) vs dose. Perform a log10 transformation of the 30 min period average counts for individual subjects to homogenize variances for subsequent analyses. […] Fit the 30 min period average counts across subjects to a function of log10 dose using least-squares curve-fitting analyses (i.e. TableCurve software from Jandel). Estimate the maximum effect from the resultant dose-response curve. […] Determine the ED50 (dose that produces ½ maximal stimulant activity) from a linear regression analysis of the ascending portion (up to the dose that produces a maximal effect) of the curve. […] Plot the mean (±SEM) activity (total counts in the 30 min period divided by 3) vs dose. Perform a log10 transformation of the 30 min period average counts for individual subjects to homogenize variances for subsequent analyses. Conduct an ANOVA and contrast (specified a priori) each dose of the test compound to the vehicle to determine significant (p<0.05) dose effects. Conduct a linear least-squares regression analysis; regress the min period average counts across subjects over the descending portion of the curve against the log10 dose of the test compound. […] Perform a log10 transformation of the 30 min period average counts for individual subjects to homogenize variances for subsequent analyses. […] Conduct a linear least-squares regression analysis; regress the 30 min period average counts across subjects over the descending portion of the curve against the log10 dose of the test compound. […] Locomotor Activity 8-hour time course/dose response study. […] A panel of infrared beams (16 beams) and corresponding photodetectors were located in the horizontal direction along the sides of each activity chamber. A 7.5-W incandescent light above each chamber provided dim illumination. Fans provided an 80-dB ambient noise level within the chamber. […] In all studies, horizontal activity (interruption of photocell beams) was measured for 8-h within 10-min periods, beginning at 0800 hrs (2 hours after lights on). Testing was conducted with one mouse per activity chamber. Compound alone study.

male Swiss-Webster mice [2] = test: Locomotor activity, compound alone, 1-h session; assay type: in vivo, mouse; details: for ED50: Mus musculus, ip, 1 h, read-out: ED50, dose producing 1/2 maximal stimulant activity (S, stimulation); for ME/CME, Maximal Effect/Cocaine Maximal Effect: mouse locomotor activity; for mode of action: ligand alone study; for effect on spontaneous LMA: compound alone
Protocol: as §1

[3] = molecular target: T1, human dopamine transporter (hDAT) (Homo sapiens, UniProt Q01959); test: biochemical; assay type: binding
T1 sequence (Q01959 whole entry): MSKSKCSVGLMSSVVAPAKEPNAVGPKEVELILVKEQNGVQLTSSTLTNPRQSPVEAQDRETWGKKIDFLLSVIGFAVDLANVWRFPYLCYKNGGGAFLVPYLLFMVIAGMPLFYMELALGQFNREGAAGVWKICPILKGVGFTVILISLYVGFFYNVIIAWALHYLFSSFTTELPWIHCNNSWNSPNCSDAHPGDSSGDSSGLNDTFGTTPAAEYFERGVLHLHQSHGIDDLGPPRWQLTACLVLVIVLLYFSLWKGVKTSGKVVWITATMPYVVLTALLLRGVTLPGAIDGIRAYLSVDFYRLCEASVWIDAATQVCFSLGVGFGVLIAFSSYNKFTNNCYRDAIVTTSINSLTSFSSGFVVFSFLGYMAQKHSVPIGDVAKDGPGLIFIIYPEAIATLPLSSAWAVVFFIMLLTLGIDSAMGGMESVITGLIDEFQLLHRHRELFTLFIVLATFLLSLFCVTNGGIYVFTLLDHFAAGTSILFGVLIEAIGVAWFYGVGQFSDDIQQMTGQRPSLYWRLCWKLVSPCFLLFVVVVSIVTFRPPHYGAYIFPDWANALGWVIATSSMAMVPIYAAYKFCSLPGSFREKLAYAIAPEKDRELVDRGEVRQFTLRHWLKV

[4] = molecular target: T1, human dopamine transporter (hDAT); test: cell-based
male Swiss-Webster mice [5] = test: Cocaine/compound interaction study on locomotor activity; assay type: in vivo, mouse; details: for Attenuation of cocaine-induced LMA: 20 mg/kg of cocaine; for AD50, dose attenuating cocaine-induced stimulation by 50%: Table 8, ligand-cocaine interaction study, 20 mg/kg cocaine IP
[6] = molecular target: T2, human norepinephrine transporter (hNET) (Homo sapiens, UniProt P23975); test: biochemical; details: read-out: NET binding affinity Ki
T2 sequence (P23975 whole entry): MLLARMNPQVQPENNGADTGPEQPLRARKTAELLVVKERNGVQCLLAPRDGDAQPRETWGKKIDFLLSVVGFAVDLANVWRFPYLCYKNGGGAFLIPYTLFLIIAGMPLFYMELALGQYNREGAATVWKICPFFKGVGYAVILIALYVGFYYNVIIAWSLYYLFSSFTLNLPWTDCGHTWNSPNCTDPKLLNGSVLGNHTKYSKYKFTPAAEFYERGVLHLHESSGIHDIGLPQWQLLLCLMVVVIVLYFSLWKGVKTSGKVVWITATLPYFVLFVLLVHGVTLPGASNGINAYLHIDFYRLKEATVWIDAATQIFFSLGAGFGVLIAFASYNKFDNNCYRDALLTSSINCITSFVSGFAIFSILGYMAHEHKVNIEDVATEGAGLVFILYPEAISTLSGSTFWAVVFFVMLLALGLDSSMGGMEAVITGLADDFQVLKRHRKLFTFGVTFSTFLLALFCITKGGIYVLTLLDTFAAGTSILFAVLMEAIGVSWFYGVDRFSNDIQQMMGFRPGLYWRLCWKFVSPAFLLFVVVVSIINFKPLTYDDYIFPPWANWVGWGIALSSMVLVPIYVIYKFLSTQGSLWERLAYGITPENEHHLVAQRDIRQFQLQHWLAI

[7] = molecular target: T3, human serotonin transporter (hSERT) (Homo sapiens, UniProt P31645); test: biochemical; details: [125I]RTI-55, read-out: SERT binding affinity Ki
T3 sequence (P31645 whole entry): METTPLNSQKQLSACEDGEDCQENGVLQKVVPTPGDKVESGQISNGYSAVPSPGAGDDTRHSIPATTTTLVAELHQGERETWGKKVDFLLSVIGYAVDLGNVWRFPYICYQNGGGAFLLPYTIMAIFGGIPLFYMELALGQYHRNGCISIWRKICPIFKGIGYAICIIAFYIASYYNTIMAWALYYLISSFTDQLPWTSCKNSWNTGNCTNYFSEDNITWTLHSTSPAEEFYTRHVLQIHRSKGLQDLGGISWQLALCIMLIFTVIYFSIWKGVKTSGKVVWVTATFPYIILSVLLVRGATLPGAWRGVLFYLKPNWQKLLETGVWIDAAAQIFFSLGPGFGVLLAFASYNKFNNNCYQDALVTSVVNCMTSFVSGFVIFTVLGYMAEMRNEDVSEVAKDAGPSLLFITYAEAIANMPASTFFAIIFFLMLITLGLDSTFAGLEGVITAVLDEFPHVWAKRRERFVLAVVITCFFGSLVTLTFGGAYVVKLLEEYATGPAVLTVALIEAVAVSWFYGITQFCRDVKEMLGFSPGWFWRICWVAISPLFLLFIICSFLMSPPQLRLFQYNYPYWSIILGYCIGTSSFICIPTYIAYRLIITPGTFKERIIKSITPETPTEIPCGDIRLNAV

[8] = molecular target: T2, human norepinephrine transporter (hNET); test: cell-based; details: read-out: Reuptake Inhibition [3H]NE IC50
[9] = molecular target: T3, human serotonin transporter (hSERT); test: cell-based
[10] = Table 5, [125I]RTI-55, oxalate salts
[11] = Table 8, mouse, IP, ligand alone, 1-h session
[12] = Table 5, [125I]RTI-55, oxalate salts, read-out: DAT binding affinity Ki
[13] = Table 6, read-out: Reuptake Inhibition [3H]DA IC50

SMILES: O=[N+]([O-])c1ccc(S(=O)(=O)N2CCN(CCCCOC(c3ccc(F)cc3)c3ccc(F)cc3)CC2)cc1 (as salt: oxalate) [Compound 42, 1-[4-[Bis(4-fluorophenyl)methoxy]butyl]-4-(4-nitrobenzenesulfonyl)piperazine]
- melting point: 170 to 173 °C

SMILES: Fc1ccc(C(OCCN2CCN(CCCc3ccccc3)CC2)c2ccc(F)cc2)cc1 [GBR 12909, reference compound]
- ED50 (male Swiss-Webster mice [1]): 6.9 mg/kg
- ME/CME, Maximal Effect/Cocaine Maximal Effect (male Swiss-Webster mice [1]; Table 9, 8 hours): 0.73
- ED50 (male Swiss-Webster mice [2]): 6.24 mg/kg
- ME/CME, Maximal Effect/Cocaine Maximal Effect (male Swiss-Webster mice [2]; Table 8): 1.22

SMILES: O=[N+]([O-])c1ccc(N2CCN(CCCCOC(c3ccc(F)cc3)c3ccc(F)cc3)CC2)cc1 (as salt: oxalate) [Compound 38, 1-[4-Nitrophenyl]-4-[1-[bis(4-fluorophenyl)methoxy]-4-butyl]piperazine]
- melting point: 196 to 198 °C

SMILES: Fc1ccc(C(OCCCCN2CCN(c3ccccc3F)CC2)c2ccc(F)cc2)cc1 [Compound 30, 1-(2-Fluorophenyl)-4-[4-[bis(4-fluorophenyl)methoxy]butyl]piperazine]
- Binding Ratios NET/DAT ([3]; Table 5): 10.8
- Binding Ratios SERT/DAT ([3]; Table 5): 0.8
- Discrimination Ratios (DR) [3H]DA reuptake/DAT binding ([4]; Table 6): 11.9
- Attenuation of cocaine-induced LMA (male Swiss-Webster mice [5]): failed to attenuate
- AD50, dose attenuating cocaine-induced stimulation by 50% (male Swiss-Webster mice [5]): no attenuation
- ED50 (male Swiss-Webster mice [2]): 0.015 mg/kg
- mode of action (male Swiss-Webster mice [2]; Table 8): monophasic
- ME/CME, Maximal Effect/Cocaine Maximal Effect (male Swiss-Webster mice [2]; Table 8): 0.49
- effect on spontaneous LMA (male Swiss-Webster mice [2]; mouse): significant increase

SMILES: Fc1ccc(C(OCCCCN2CCN(c3cccc(C(F)(F)F)c3)CC2)c2ccc(F)cc2)cc1 [Compound 36, 1-[3-(Trifluoromethyl)phenyl]-4-[4-[bis(4-fluorophenyl)methoxy]butyl]piperazine]
- Binding Ratios NET/DAT ([3]; Table 5): 6.8
- Binding Ratios SERT/DAT ([3]; Table 5): 6.8
- ED50 (male Swiss-Webster mice [1]): 1.1 mg/kg
- ME/CME, Maximal Effect/Cocaine Maximal Effect (male Swiss-Webster mice [1]; Table 9, 8 hours): 0.46
- mode of action (male Swiss-Webster mice [1]; Table 9, ligand alone study, 8 hours): monophasic
- Ki [6, 10]: 0.222 ± 0.0097 µM
- Discrimination Ratios (DR) [3H]DA reuptake/DAT binding ([4]; Table 6): 11.7
- AD50, dose attenuating cocaine-induced stimulation by 50% (male Swiss-Webster mice [5]): 18.35 mg/kg
- mode of action (male Swiss-Webster mice [2]; Table 8): monophasic
- ID50, dose producing 1/2 maximal depressant activity (I, inhibition) (male Swiss-Webster mice [2]; [11]): 113 mg/kg and 113/I^g mg/kg
- effect on spontaneous LMA (male Swiss-Webster mice [2]; mouse): Significant suppression

SMILES: O=[N+]([O-])c1ccc(S(=O)(=O)N2CCN(CCCCOC(c3ccc(F)cc3)c3ccc(F)cc3)CC2)cc1 [Compound 42, 1-[4-[Bis(4-fluorophenyl)methoxy]butyl]-4-(4-nitrobenzenesulfonyl)piperazine]
- Binding Ratios NET/DAT ([3]; Table 5): >13.2
- Binding Ratios SERT/DAT ([3]; Table 5): 6.5
- Ki [3, 12]: 760 ± 220 nM
- Ki ([6]; Table 5, bound given in μM): > 10 µM
- Discrimination Ratios (DR) [3H]DA reuptake/DAT binding ([4]; Table 6): 5.5
- IC50 [4, 13]: 4200 ± 1100 nM
- Ki ([7]; Table 5, oxalate salts): 4930 ± 670 nM
- Attenuation of cocaine-induced LMA (male Swiss-Webster mice [5]): failed to attenuate
- AD50, dose attenuating cocaine-induced stimulation by 50% (male Swiss-Webster mice [5]): no attenuation
- ED50, dose producing 1/2 maximal stimulant activity (S, stimulation) (male Swiss-Webster mice [2]; [11]): no activity
- IC50 ([8]; Table 6, bound given in μM): > 10 µM
- IC50 ([9]; Table 6, bound given in μM, read-out: Reuptake Inhibition [3H]5-HT IC50): > 10 µM

SMILES: O=C(Nc1ccc(F)cc1)N1CCN(CCCCOC(c2ccc(F)cc2)c2ccc(F)cc2)CC1 [Compound 4]
- Ki [3]: 60 ± 8 nM
- Binding Ratios NET/DAT ([3]; Table 1): 2.2
- Binding Ratios SERT/DAT ([3]; Table 1): 0.2
- Ki ([6]; Table 1, [125I]RTI-55): 0.133 ± 0.018 µM
- IC50 ([4]; Reuptake Inhibition [3H]DA IC50, Table 1-1): 9 ± 3 nM
- Discrimination Ratios [3H]DA reuptake/DAT binding ([4]; Table 1-1): 0.2
- Ki ([7]; Table 1): 14 ± 6 nM
- IC50 ([8]; Table 1-1): 0.045 ± 0.017 µM
- IC50 ([9]; Reuptake Inhibition [3H]5-HT IC50, Table 1-1): 0.068 ± 0.028 µM

SMILES: O=C(Nc1ccc(F)cc1)NC1CCN(CCCCOC(c2ccc(F)cc2)c2ccc(F)cc2)CC1 [Compound 17]
- Ki [3]: 32 ± 1.4 nM
- Binding Ratios NET/DAT ([3]; Table 3): 13.4
- Binding Ratios SERT/DAT ([3]; Table 3): 8.7
- Ki ([6]; Table 3, [125I]RTI-55): 0.43 ± 0.1 µM
- IC50 ([4]; Reuptake Inhibition [3H]DA IC50, Table 3-1): 7000 ± 1790 nM
- Discrimination Ratios [3H]DA reuptake/DAT binding ([4]; Table 3-1): 219
- Ki ([7]; Table 3): 279 ± 57 nM
- IC50 ([8]; Table 3-1): 2.53 µM
- IC50 ([9]; Reuptake Inhibition [3H]5-HT IC50, Table 3-1): 7.14 µM

SMILES: Fc1ccc(C(OCCCCN2CCNCC2)c2ccc(F)cc2)cc1 [Compound 3]
- Binding Ratios NET/DAT ([3]; Table 5): 5.7
- Binding Ratios SERT/DAT ([3]; Table 5): 3.2
- Ki [3, 12]: 600 ± 190 nM
- Ki [6, 10]: 3.4 ± 1.5 µM
- Discrimination Ratios (DR) [3H]DA reuptake/DAT binding ([4]; Table 6): 1.7
- IC50 [4, 13]: 1000 ± 190 nM
- Ki ([7]; Table 5, oxalate salts): 1900 ± 330 nM
- IC50 ([8]; Table 6): 0.85 ± 0.27 µM
- IC50 ([9]; Table 6, read-out: Reuptake Inhibition [3H]5-HT IC50): 2.17 ± 0.078 µM
